{"source": "patent US20250333423A1", "about": "“SMALL MOLECULE MODULATORS OF GP130 SIGNALING PATHWAYS” (CarthroniX, Inc., priority 2022, published 2025)", "origin": "cited, not measured here", "key": {"gp130": {"target": "T1, gp130 (Homo sapiens, UniProt P40189)", "T1 sequence (P40189 23-918)": "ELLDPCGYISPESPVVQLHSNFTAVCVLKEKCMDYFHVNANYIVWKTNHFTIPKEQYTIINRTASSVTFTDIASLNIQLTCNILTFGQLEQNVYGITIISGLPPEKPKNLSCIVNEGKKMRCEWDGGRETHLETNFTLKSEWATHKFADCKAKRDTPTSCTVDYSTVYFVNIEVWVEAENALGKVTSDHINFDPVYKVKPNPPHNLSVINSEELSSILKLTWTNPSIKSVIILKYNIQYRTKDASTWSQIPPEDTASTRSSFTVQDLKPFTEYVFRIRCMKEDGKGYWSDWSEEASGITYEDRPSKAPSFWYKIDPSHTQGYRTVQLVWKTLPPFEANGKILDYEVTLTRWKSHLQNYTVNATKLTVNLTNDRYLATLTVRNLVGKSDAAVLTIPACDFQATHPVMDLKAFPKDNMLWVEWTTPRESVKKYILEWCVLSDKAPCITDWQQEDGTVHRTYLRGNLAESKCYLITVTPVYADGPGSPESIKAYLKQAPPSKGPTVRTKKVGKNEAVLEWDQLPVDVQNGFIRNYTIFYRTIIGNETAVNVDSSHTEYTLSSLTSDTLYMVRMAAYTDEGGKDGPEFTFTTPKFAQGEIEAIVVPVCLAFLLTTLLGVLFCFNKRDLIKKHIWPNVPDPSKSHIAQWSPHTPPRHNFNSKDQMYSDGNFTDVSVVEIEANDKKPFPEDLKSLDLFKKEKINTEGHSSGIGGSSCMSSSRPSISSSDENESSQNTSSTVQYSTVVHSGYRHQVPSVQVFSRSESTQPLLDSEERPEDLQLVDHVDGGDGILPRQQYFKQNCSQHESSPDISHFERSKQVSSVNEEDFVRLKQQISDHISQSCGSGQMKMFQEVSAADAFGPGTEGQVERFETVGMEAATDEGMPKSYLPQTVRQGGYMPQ"}}}
{"smiles": "Brc1ccc(Nc2nc(-c3ccccc3)cs2)cc1", "note": "[RCGD 423]", "values": [{"measurement": "interaction with gp130", "setting": "gp130; in vitro", "result": "interacts with the extracellular region of gp130"}, {"measurement": "formation of gp130 homodimers", "setting": "gp130; ligand-independent", "result": "promotes the formation of active, ligand-independent gp130 homodimers"}, {"measurement": "prevention of cartilage degeneration", "setting": "rat model of OA", "result": "remarkable ability to prevent cartilage degeneration"}]}
